Results reported in patent publication US5578596A, “2-alkoxy-5,6,7,8-tetrahydroquinoxaline derivatives, and production method and use thereof” (Asahi Kasei Kogyo Kabushiki Kaisha, priority 1992, dated 1996).

Assays:
[1] = tested on: immobile state of rat in forced swimming test; test: Anti-depression activity evaluated by forced swimming test using rats; type: in vivo, male Wistar strain rats; conditions: hydrochloride; for Time spent in immobile state: 30 min before test, observed 6 min, 6 rats, saline control 236 sec.
Method: 4. Anti-depression activity (which was evaluated by forced swimming test using rats)
When a rat is put in a water tank, the rat struggles for its life to get out of the water (that is, the rat starts a "forced swimming"). If the rat finds that it is impossible for him to get out, the rat stops swimming and assumes an immobile state. It has been known that the administration of an antidepressant can cause a violent swimming motion in the rat for getting out of the water, with a result that the time spent in the immobile state is shortened. The shortening of the time in the immobile state of the rat in the forced swimming test by the administration of the antidepressant is well correlated to the clinical anti-depression effect. Accordingly, in developing antidepressants, the forced swimming test using a rat is the most reliable screening method. In the present test, male Wistar strain rats were used. Compound 300 of the present invention (in the form of the hydrochloride thereof) was intraperitoneally administered to a rat. 30 minutes after the administration, the rat was put in a water tank and then, observed for 6 minutes. The time for the rat to keep the immobile state was measured.

[2] = tested on: cisplatin-induced emesis; test: Suppression of cisplatin-induced emesis in suncus; type: in vivo; conditions: hydrochloride 0.3 mg/kg intraperitoneal, 30 min before cisplatin 20 mg/kg i.p.
Method: (§1) It has been known that cisplatin and nicotine have an emesis-inducing activity. In this test, it was investigated as to whether the hydrochloride of compound (1) of the present invention has the activity to suppress the occurrence of emeses which are induced by these drugs.
Cisplatin was intraperitoneally administered to each of four suncuses (20 mg/kg). As a result, with respect to all of the suncuses, emesis occurred 10 to 20 times within 40 to 70 minutes after the administration of the cisplatin.

[3] = tested on: nicotine-induced emesis; test: Suppression of nicotine-induced emesis in suncus; type: in vivo; conditions: hydrochloride 3 mg/kg intraperitoneal, 30 min before nicotine 4 mg/kg s.c.
Method: as §1
On the other hand, nicotine was subcutaneously administered to four suncuses (4 mg/kg). As a result, with respect to all of the suncuses, emesis was induced 11 to 29 times within 3 to 10 minutes after the administration of the nicotine.

[4] = tested on: Suncus murinus (motion sickness emesis); test: Activities against motion sickness: acceleration-stimulus induced emesis in suncus; type: in vivo; conditions: 1 mg/kg intraperitoneal, 30 min before acceleration-stimulus (4 cm, 1 Hz), observed 10 min; hydrochloride; 4 suncus
From the text: The activities of individual compounds against motion sickness were examined using Suncus murinus. Suncus murinus is a small animal belonging to the Soricidae family. It has been known that suncus is likely to suffer from motion sickness and is susceptible to occurrence of emesis [see "Seitai-no-kagaku (Science of living body)", 41, 538 (1990)]. Suncus is likely to show symptoms like the symptoms of human motion sickness under the stimulus of simple acceleration, finally leading to the occurrence of emesis. It has been recognized that motion sickness is caused by the occurrence of disorder in information, such as vision, equilibrium sense and the like, or by a stimulus which has never been memorized. Further, it has been recognized that the disorder in the inner earvestibular nucleus pathway and the high-order function of brain take part in the occurrence of motion sickness. Therefore, medicines capable of suppressing the occurrence of emesis of suncus would be useful for preventing and treating motion sickness, space sickness, emesis, dizziness and the like.
In this test, test compounds were individually administered intraperitoneally to suncus.
The time for occurrence of emesis was measured with respect to each of the test compounds, and the results are shown in Table 3.

[5] = biological target: T1, serotonin 1A (5HT1A) receptor (Rattus norvegicus, UniProt P19327); test: Affinity for serotonin 1A (5HT1A) receptor: inhibition of 3H-8-OH-DPAT binding to rat hippocampal membrane fraction; conditions: test compound as hydrochloride
T1 construct: The resultant precipitate was used as a rat hippocampal membrane fraction in the following procedures; from tissue; host or cells: hippocampal membrane fraction of male SD rat (7 weeks old; animals from Charles River)
T1 sequence (P19327 1-422): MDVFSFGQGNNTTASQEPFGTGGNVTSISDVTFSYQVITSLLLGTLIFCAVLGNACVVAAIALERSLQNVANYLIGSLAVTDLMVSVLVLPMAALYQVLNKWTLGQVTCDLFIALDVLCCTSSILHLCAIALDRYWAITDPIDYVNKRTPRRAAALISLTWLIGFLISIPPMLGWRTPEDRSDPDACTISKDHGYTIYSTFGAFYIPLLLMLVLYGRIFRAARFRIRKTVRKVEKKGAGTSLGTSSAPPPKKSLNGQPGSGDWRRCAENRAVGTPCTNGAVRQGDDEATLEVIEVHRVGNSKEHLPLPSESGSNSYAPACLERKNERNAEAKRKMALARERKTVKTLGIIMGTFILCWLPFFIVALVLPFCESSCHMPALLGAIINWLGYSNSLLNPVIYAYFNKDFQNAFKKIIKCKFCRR
Method: 1. Affinity for serotonin 1A (5HT1A) receptor
(A) Preparation of rat hippocampal membrane fraction
A male SD strain rat (7-week old; Charles River) was decapitated, and brain was taken out therefrom quickly. 50 mM Tris-HCl buffer (pH 7.4) was added to the brain under ice cooling to obtain a suspension. The resultant suspension was homogenized, and then subjected to centrifugation at 48000 g for 15 minutes, to thereby obtain a precipitate. The precipitate was resuspended in the same Tris-HCl buffer as used above. The resultant suspension was incubated at 30° C. for 20 minutes to decompose endogenous serotonin of the rat hippocampal membrane, followed by centrifugation at 48000 g for 15 minutes to thereby obtain a precipitate. The resultant precipitate was used as a rat hippocampal membrane fraction in the following procedures.
(B) Method for the evaluation of the binding ability of ^3 H-8-hydroxy-dipropylaminotetralin (^3 H-8-OH-DPAT) to serotonin 1A receptor
The rat hippocampal membrane fraction prepared in step (A) above (about 100 to 200 μg in terms of proteins) was reacted with 0.5 nM (final concentration) ^3 H-8-OH-DPAT (which is commercially available from DuPont-NEN Research Products) and 10 μM (final concentration) pargyline (which is commercially available from Sigma Chemical Company) at 30° C. for 30 minutes to effect a reaction. The resultant reaction mixture was subjected to suction filtration using a Whatman GF/C filter, to thereby terminate the reaction. The radio-activity of ^3 H-8-OH-DPAT adsorbed on the filter was determined using a liquid scintillation counter. The obtained value is regarded as a total amount (TB) of specifically binding ^3 H-8-OH-DPAT and non-specifically binding ^3 H-8-OH-DPAT.
On the other hand, substantially the same procedure as mentioned above was repeated, except that 10 μM (final concentration) serotonin was added to the ^3 H-8-OH-DPAT and pargyline. The radioactivity of ^3 H-8-OH-DPAT adsorbed on the filter was determined in the same manner as mentioned above. The obtained value is regarded as the amount (NB) of non-specifically binding ^3 H-8-OH-DPAT.
Further, substantially the same procedure as mentioned above was repeated, except that, instead of serotonin, a test compound was used in a predetermined concentration. The radioactivity of ^3 H-8-OH-DPAT adsorbed on the filter was determined in the same manner as mentioned above. The obtained value is regarded as the amount (DTB) of binding ^3 H-8-OH-DPAT.
(C) Calculation of Ki value
The inhibition ratio of the test compound (at a certain concentration) against the binding of 3H-8-OH-DPAT (the inhibition ratio is hereinafter referred to simply as "binding inhibition ratio") was calculated according to the following formula:
Binding inhibition ratio (%)=100-(DTB-NB).div.(TB-NB)×100
With respect to each of the test compounds, the binding inhibition ratios at various concentrations (from a higher concentration to a lower concentration) were determined. The binding inhibition ratios were plotted, taking the logarithmic value of the concentration of test compound as the abscissa value, and the binding inhibition ratio as the ordinate value. Then, a curve was drawn by non-linear least square method.
The Ki value was determined according to the following formula:
[L] is the concentration (0.2 nM) of a radioactive ligand (^3 H-8-OH-DPAT) used in the test;

[6] = known, background; cited from earlier work

Structure (SMILES)	time for the rat to keep the immobile state (in words) ([1]; 1 mg/kg and 10 mg/kg)	Time spent in immobile state ([1]; 1 mg/kg intraperitoneal)	Time spent in immobile state ([1]; 10 mg/kg intraperitoneal)	occurrence of cisplatin-induced emesis [2]	occurrence of nicotine-induced emesis [3]	Time for occurrence of emesis [4]	Ki [5]	effect on emesis induced by drugs other than cisplatin [6]	effect on motion sickness [6]	suppression of cisplatin-induced emesis [6]
c1ccc(N2CCN(CCCCOc3cnc4c(n3)CCCC4)CC2)nc1 [Compound 300, 2-[4-{4-(2-Pyridyl)-1-piperazinyl}butoxy]-5,6,7,8-tetrahydroquinoxaline]	remarkably shortened	173 s	163 s	completely suppressed	completely suppressed	Emesis did not occur	1.6 nM	–	–	–
Cc1nccn1CC1CCc2c(c3ccccc3n2C)C1=O (stereo not shown) [ondansetron]	–	–	–	–	–	–	–	no effect	no effect	effective for suppressing cisplatin-induced emesis
